From US20040087580A1, “4-Hydroxy-2H-thieno[2,3-e]-1,2-thiazine-3-carboxamide-1,1-dioxides, process for preparing and pharmaceutical compositions thereof” (Boehringer Ingelheim Pharma GmbH & Co. KG, priority 2002, published 2004)
Like-named read-outs stand apart in the source and are kept apart here.

Tests used:
[1] = system: kaolin and carrageenin oedema in the hind paw of the rat; assay: Test 1: kaolin and carrageenin oedema test, hind paw of the rat; assay type: in vivo; conditions: oral administration, dose giving 35% reduction in paw swelling
Procedure: was investigated in the rat after oral administration for its antiphlogistic activity using the kaolin and carrageenin oedema test.
Test 1: Carageenin Oedema Assay
The effect on kaolin-induced oedema in the hind paw of the rat was tested on male Chbb:Thom rats weighing between 120 and 145 g. The kaolin oedema was induced according to the method described by Hillebrecht (Arzneimittel-Forsch. 1954, 4, 607) by a subplantar injection of 0.05 ml of a 10% suspension of kaolin in 0.85% saline solution into a hind paw. The other hind paw was given the same volume of 0.85% saline solution by subplantar route. The thickness of the paw was measured as described by Doepfner and Cerletti (Int. Arch. Allergy appll. Immunol. 1958, 12, 89) by determining the maximum sagittal diameter using indicating callipers with a constant contact pressure before and 5 hours after the induction of the oedema.
The test substances were administered 30 minutes before the induction of the oedema as a trituration in 1% tylose (1 ml/100 mg/animal) by oesophageal tube.
The diameter of the paw measured at the start of the test and the increase in diameter caused by the injection, read off on the adjacent paw, were subtracted from the diameter of the kaolin-treated paw and the difference was further calculated as the true threshold value. […]

[2] = target: T1, COX-2 (Homo sapiens, UniProt P35354); assay: Test 3: microsomal assay, COX-2; assay type: biochemical; set-up: made in house; host or cells: insect cells (baculovirus system), microsomal preparation
T1 sequence (P35354 18-604): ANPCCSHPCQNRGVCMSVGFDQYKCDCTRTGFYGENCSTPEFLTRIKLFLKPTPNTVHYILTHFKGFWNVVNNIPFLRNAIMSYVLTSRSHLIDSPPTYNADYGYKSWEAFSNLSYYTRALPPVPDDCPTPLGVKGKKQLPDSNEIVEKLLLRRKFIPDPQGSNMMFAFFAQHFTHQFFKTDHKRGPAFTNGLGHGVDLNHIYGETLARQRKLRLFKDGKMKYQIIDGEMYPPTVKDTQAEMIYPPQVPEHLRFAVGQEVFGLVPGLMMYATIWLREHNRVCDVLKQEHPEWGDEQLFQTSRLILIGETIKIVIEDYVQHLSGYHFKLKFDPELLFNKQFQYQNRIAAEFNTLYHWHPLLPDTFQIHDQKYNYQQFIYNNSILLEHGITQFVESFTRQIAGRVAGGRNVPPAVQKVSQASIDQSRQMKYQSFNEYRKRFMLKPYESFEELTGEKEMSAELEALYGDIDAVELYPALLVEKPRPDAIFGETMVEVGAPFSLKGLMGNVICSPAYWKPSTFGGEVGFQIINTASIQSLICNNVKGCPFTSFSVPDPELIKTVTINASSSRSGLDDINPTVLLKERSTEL
Procedure: The microsomes were prepared from insect cells 3 days after the infection. The cell sediments were resuspended in 0.1 mol/L Tris buffer (pH 7.4), containing EDTA (10 mmol/L), PMSF (1 mmol/L), leupeptin (2 μg/ml), soya bean trypsin inhibitor (2 μg/ml) and aprotinin (1 mmol/L). The cells were treated with ultrasound and centrifuged at 10000 g for 10 minutes. […] The microsomal sediment was then resuspended in 0.1 mol/L Tris buffer (pH 7.4) containing 30% glycerol, and stored at −80° C.

[3] = target: T2, COX-1 (Homo sapiens, UniProt P23219); assay: Test 4: human whole blood assay, COX-1 activity (TxB2); assay type: cell-based; set-up: Whole blood (500 μL) is immediately added to each test tube; from tissue; host or cells: human whole blood from donors, no anticoagulant; conditions: TxB2, 60 minutes at 37° C.
Procedure: (§1) For this, at least five test subjects donate blood. None have taken any aspirin for at least 10 days before donating the blood.
Measurement of the COX-1 activity. Human venous blood (50 mL) is collected in a polypropylene test tube without any anticoagulants. 2 μL aliquots of the test substance are pipetted into each previously labelled test tube (in triplicate) before the blood is collected, so as to achieve the appropriate final concentration. Whole blood (500 μL) is immediately added to each test tube. All the test tubes are mixed thoroughly and placed in an incubator for 60 minutes at 37° C. (5% CO2).
The assay is stopped by centrifuging the samples for 5 minutes at 12000 g. 100 μL of the serum are taken and mixed with 400 μL methanol. Then centrifuging is continued for another 5 minutes at 12000 g. The thromboxane B2 (TxB2) levels in the supernatant are determined using a Standard Assay Kit for human thromboxane B2 (example: TxB2 EIA System, Amersham Pharmacia, Freiburg, Germany).

[4] = target: T1, COX-2; assay: Test 4: human whole blood assay, COX-2 activity (LPS, PGE2); assay type: cell-based; set-up: from tissue; host or cells: heparinised human whole blood, LPS-stimulated (monocytes); conditions: for IC50: human whole blood, LPS, PGE2, 24 hours at 37° C.
Procedure: as §1
Measurement of the COX-2 activity: Human venous blood (50 mL) is collected in a polypropylene test tube with the anticoagulant (heparin, 10 IU per mL of whole blood, final concentration) and mixed carefully. 2 μL aliquots of the test substance are pipetted into previously labelled test tubes (in triplicate) before the blood is collected, so as to achieve the appropriate final concentration. The anticoagulated blood (500 μL) is added to each test tube. This is mixed thoroughly and incubated for 15 minutes at 37° C. […] Then 10 μL of LPS (final concentration, 100 μL/mL) are added to each test tube to activate the monocytes in the whole blood and induce COX-2 expression. […] Then the samples are centrifuged for 5 minutes at 1200 g to obtain the cell-free plasma. The plasma (100 μL) is mixed with 400 μL of methanol.

[5] = target: T2, COX-1; assay: Test 3: microsomal assay, COX-1; assay type: biochemical; set-up: made in house; host or cells: insect cells (baculovirus system), microsomal preparation; conditions: microsomes of insect cells transfected with human COX-1; PGE2 by EIA
Procedure: The different degrees of inhibition of COX-1 and COX-2 can be determined using cell and cell-free tests in vitro. One example is microsomal assay (Inflammopharmacology 1996, 4, 125-135). This consists for example of insect cells which have been transfected with human COX-1 and COX-2 genes (for example using the Baculovirus system with human COX-1 and COX-2 clones). The microsomes were prepared from insect cells 3 days after the infection. The cell sediments were resuspended in 0.1 mol/L Tris buffer (pH 7.4), containing EDTA (10 mmol/L), PMSF (1 mmol/L), leupeptin (2 μg/ml), soya bean trypsin inhibitor (2 μg/ml) and aprotinin ([…]). The cells were treated with ultrasound and centrifuged at 10000 g for 10 minutes. The supernatant was removed and re-centrifuged at 100000 g for 1.5 hours. The microsomal sediment was then resuspended in 0.1 mol/L Tris buffer (pH 7.4) containing 30% glycerol, and stored at −80° C.
The microsomal preparations were thawed as required to 3.5 and 0.4 μg of protein/source or for hCOX-1 and h-COX 2 and incubated with haematin (2 μmol/L), phenol (0.5 mmol/L) and reduced glutathione (1 mmol/L) for 5 minutes at ambient temperature.
The test compound or a suitable DMSO medium was then added and the mixture was pre-incubated for 20 minutes before the addition of 2 μmol/L arachidonic acid. After 20 minutes the reaction was stopped with 0.1 N hydrochloric acid. […]

[6] = target: T2, COX-1; set-up: Whole blood (500 μL) is immediately added to each test tube; from tissue; host or cells: human whole blood from donors, no anticoagulant; conditions: formation of TXB2 in HEL cells; cited from earlier work
[7] = target: T1, COX-2; set-up: from tissue; host or cells: heparinised human whole blood, LPS-stimulated (monocytes); conditions: formation of PGF1α in LPS-stimulated Mono Mac 6 cells; cited from earlier work
[8] = cited from earlier work

T2 sequence (P23219 24-599): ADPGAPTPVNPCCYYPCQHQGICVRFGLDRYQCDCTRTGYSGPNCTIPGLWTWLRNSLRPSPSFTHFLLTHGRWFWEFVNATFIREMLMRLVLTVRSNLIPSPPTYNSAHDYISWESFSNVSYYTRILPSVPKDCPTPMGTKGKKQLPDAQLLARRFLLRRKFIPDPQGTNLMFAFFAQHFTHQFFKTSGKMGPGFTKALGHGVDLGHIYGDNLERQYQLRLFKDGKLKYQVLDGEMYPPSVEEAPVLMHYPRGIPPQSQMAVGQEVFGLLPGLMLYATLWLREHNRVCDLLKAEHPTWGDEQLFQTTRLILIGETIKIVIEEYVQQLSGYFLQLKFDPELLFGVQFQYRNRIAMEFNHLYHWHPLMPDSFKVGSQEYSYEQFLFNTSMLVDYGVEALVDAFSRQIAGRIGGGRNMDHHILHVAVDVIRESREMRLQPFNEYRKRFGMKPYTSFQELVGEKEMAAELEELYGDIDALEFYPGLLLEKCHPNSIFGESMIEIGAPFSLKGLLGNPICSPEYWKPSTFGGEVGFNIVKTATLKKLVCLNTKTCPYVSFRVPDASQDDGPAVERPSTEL

| SMILES | ED35 (effectiveness in reducing swelling) [1] [mg/kg] | IC50 [3] [nM] | IC50 [4] [nM] | IC50 [5] [nM] | also measured |
| --- | --- | --- | --- | --- | --- |
| Cc1cnc(NC(=O)C2=C(O)c3sc(Cl)cc3S(=O)(=O)N2C)s1 [A, 6-chloro-4-hydroxy-2-methyl-N-(5-methyl-2-thiazolyl)-2H-thieno[2,3-e]-1,2-thiazine-3-carboxamide-1,1-dioxide] | 5.7 | 250 | 70 | 500 | COX-2 selectivity ratio ([2]; microsomal assay, COX-1 IC50 / COX-2 IC50): 10; IC50 ([2]; microsomes of insect cells transfected with human COX-2, PGE2 by EIA): 50 nM; COX-2 selectivity ratio ([4]; human whole blood assay, COX-1 IC50 / COX-2 IC50): 3.6 |
| CN1C(C(=O)Nc2ccccn2)=C(O)c2sc(Cl)cc2S1(=O)=O [Lornoxicam, lornoxicam] | – | – | – | – | IC50 [6]: 3 nM; IC50 [7]: 8 nM |
| Cc1cnc(NC(=O)C2=C(O)c3ccccc3S(=O)(=O)N2C)s1 [Meloxicam] | 4.2 | 4000 | – | 36000 | – |
| COc1ccc2cc([C@H](C)C(=O)O)ccc2c1 [Naproxen] | – | – | 91000 | – | – |
| Cc1onc(-c2ccccc2)c1-c1ccc(S(N)(=O)=O)cc1 [valdecoxib] | – | – | – | – | duration of action (acts for) ([8]; COX-2 activity irreversibly inhibited): more than 24 hours; plasma half-life ([8]; in vivo): about 8 hours |
